Data: patent publication US6680025B2, “Device and method for photoactivation” (Cerus Corporation, priority 1989, dated 2004)

How the values were obtained:
Assay type in all cases: biochemical
[1] = tested on: 115-mer (SK-38/SK-39 HIV system); assay: Sterilization sensitivity, 115-mer PCR product; details: CE-III 15 minutes, 30 cycles
Excerpt: (§1) As discussed generally for sterilization, it is expected that the sensitivity of sterilization will depend upon both the modification density and the length of the PCR target sequences. In this experiment, the effect of modification density and target length on sterilization sensitivity were examined by sterilizing two different length PCR products with either AMIP or AMDMIP. Each isopsoralen was used at two different concentrations for the sterilization procedure to produce differing modification densities on PCR targets.
(§2) The two PCR targets used in these experiments were a 115-mer (SK-38/SK-39 HIV system) and a 500-mer. The 500-mer target is obtained from a PCR amplification of a lambda plasmid with primers PCR 01/02. This system is provided by Cetus/Perkin Elmer as a control in their commercial kits of PCR reagents (Catalogue No. N801-0055). For both of these systems equivalent copy numbers of each target were prepared in the following manner: An initial 30 cycle PCR reaction was carried out for each system with the appropriate primers and targets. Aliquots (approximately 10^5-10^6 target copies) of each of these reactions were transferred to a second set of PCR reactions. These second sets of PCR amplifications were carried out in the presence of α-32P-dCTP, again for 30 cycles. Aliquots of these reactions were removed and counted by liquid scintillation counting. With these numbers, the specific activity of the α-32P-dCTP, and the sequence of each of the PCR product oligonucleotides (115-mer and 500-mer), the concentrations of each of the two PCR product oligonucleotides in the second set of PCR reaction tubes was determined. Both the 115-mer and the 500-mer concentrations were then adjusted to exactly 1×10^−8M by the addition of additional Taq buffer. These stocks of equivalent copy number of PCR products were then used for further investigation. Each of the stock solutions then was subdivided into four reaction tubes. The reaction tubes were adjusted to contain the following: Tube 1, 100 μg/ml AMIP; Tube 2, 400 μg/ml AMIP; Tube 3, 100 μ/ml AMDMIP: and Tube 4, 400 μg/ml AMDMIP. Each of these samples were again split into two portions, one part being irradiated for 15 minutes at room temperature with the CE-III device and the other part kept in the dark. Serial dilutions of the irradiated and the unirradiated targets were then carried out on these samples for 30 cycles in the presence of α-32P-CTP. Aliquots of these samples were analyzed on denaturing polyacrylamide gels. The PCR product bands were visualized by autoradiography, cut, and counted in a liquid scintillation counter.

Klenow Polmerase = assay: Primer extension on monoadducted 71-mer, Klenow polymerase; details: 37° C., 0, 5 or 15 minutes
[2] = tested on: 500-mer (lambda plasmid, primers PCR 01/02); assay: Sterilization sensitivity, 500-mer PCR product; details: CE-III 15 minutes, 30 cycles
Excerpt: as §1, §2

T4 polymerase = assay: Primer extension on monoadducted 71-mer, T4 polymerase; details: 37° C., 0, 5 or 15 minutes
Excerpt: The sequences that are presented in FIG. 26 describe several oligonucleotides that are used in the synthesis of either a normal 71-mer or the identical 71-mer containing a site-specifically placed psoralen or isopsoralen monoadduct. The 71-mer is a sub-sequence of the Human Immunodeficiency Virus (HIV) sequence. (An HIV DNA system is described in a co-pending application, Serial No. 225,725.) SK-39 is a primer oligonucleotide that is complementary to the 3′ end of the 71-mers. This primer oligonucleotide can be extended on the 71-mer template to make a complementary strand of the 71-mer.
Preparation of 71-mers which contain site-specific monoadducts involves 1) preparation of different 15-mer monoadducts from the same unmodified 15-mer (HRI-42), and 2) ligation of the different 15-mer monoadducts to the same 56-mer “extender oligonucleotide” (HRI 102) using a 25-mer oligonucleotide (HRI-45) as a splint. The arrows in FIG. 27 indicate the direction of synthesis, while the monoadduct is indicated by a short line that is perpendicular to the oligomer. While each of the 71-mer monoadducts contains the adduct at a base position that is greater than 56 bases from the 5′ end, the precise position of the monoadduct is not meant to be indicated.
To prepare the 15-mer adducts, the 15-mer was incubated with a complementary 10-mer along with psoralen or isopsoralen under hybridization conditions. The mixture was then irradiated to provide the monoadducted 15-mer. While the invention is not dependent on knowing the precise mechanism of coupling, it has generally been believed that the 10-mer directs the isopsoralen to a single TpA site within the double-stranded helix formed by the 10-mer/15-mer hybrid. […]
To provide highly purified 71-mers which contain a single monoadduct, it was necessary to provide highly purified 15-mer monoadduct prior to the ligation step. […] Separation of 15-mer monoadduct from unmodified 15-mer was readily accomplished by PAGE (while the same technique is not effective for separation of the corresponding unmodified 71-mer and monoadducted 71-mer sequences). […]

SMILES | sterilization sensitivity (carryover sterilized) ([1]; 100 μg/ml) | sterilization sensitivity (carryover sterilized) ([1]; 400 μg/ml) | block of primer extension by 71-mer monoadduct (Klenow Polmerase) | sterilization sensitivity (carryover sterilized) ([2]; 100 μg/ml) | sterilization sensitivity (carryover sterilized) ([2]; 400 μg/ml) | block of primer extension by 71-mer monoadduct (T4 polymerase)
NCc1cc2occc2c2oc(=O)ccc12 [AMIP, 5-Aminomethylisopsoralen] | about 10,000 molecules of carryover | about 10^6 carryover molecules | not complete stops | more effectively sterilized than the 115-mer PCR product | ≥ 6×10^9 molecules of carryover | complete stops
Cc1cc2occc2c2oc(=O)ccc12 [MIP, 5-Methylisopsoralen] | – | – | not complete stops | – | – | complete stops
Cc1oc2ccc3c(C)cc(=O)oc3c2c1CN [AMDMIP, 4′-Aminomethyl-4,5′-dimethylisopsoralen] | better sterilization agent | ≥ 6×10^9 carryover molecules | complete stop | ≥ 6×10^9 carryover molecules | no signal in the irradiated dilution series | complete stop
